Source: patent US5430062A, “Stilbene derivatives as anticancer agents” (priority 1993, dated 1995)

How the values were obtained:
CCRF-CBM leukemia = assay: Cytotoxicity, CCRF-CBM; format: cell-based; conditions: read-out: Log10 GI50, CCRF-CBM (converted)
Description: (§1) A total of 55 cell lines from the leukemia, non-small cell lung cancer, small cell lung cancer, colon cancer, CNS cancer, melanoma, ovarian cancer, and renal cancer panels were examined.

K-562 leukemia = assay: Cytotoxicity, K-562; format: cell-based
Description: as §1

RPMI-8226 leukemia = assay: Cytotoxicity, RPMI-8226; format: cell-based; conditions: Homo sapiens, read-out: Log10 GI50, RPMI-8226 (converted)
Description: as §1

[1] = test system: A549/ATCC non-small cell lung cancer; assay: Cytotoxicity, A549/ATCC; format: cell-based; conditions: Homo sapiens, read-out: Log10 GI50, A549/ATCC (converted)
Description: as §1

[2] = test system: HOP-62 non-small cell lung cancer; assay: Cytotoxicity, HOP-62; format: cell-based; conditions: Homo sapiens, read-out: Log10 GI50, HOP-62 (converted)
Description: as §1

[3] = test system: HOP-92 non-small cell lung cancer; assay: Cytotoxicity, HOP-92; format: cell-based; conditions: Homo sapiens, read-out: Log10 GI50, HOP-92 (converted)
Description: as §1

[4] = test system: NCI-H23 non-small cell lung cancer; assay: Cytotoxicity, NCI-H23; format: cell-based; conditions: Homo sapiens, read-out: Log10 GI50, NCI-H23 (converted)
Description: as §1

[5] = test system: NCI-H322M non-small cell lung cancer; assay: Cytotoxicity, NCI-H322M; format: cell-based; conditions: Homo sapiens, read-out: Log10 GI50, NCI-H322M (converted)
Description: as §1

[6] = test system: LXFL 529 non-small cell lung cancer; assay: Cytotoxicity, LXFL 529; format: cell-based; conditions: Homo sapiens, read-out: Log10 GI50, LXFL 529 (converted)
Description: as §1

[7] = test system: DMS114 small cell lung cancer; assay: Cytotoxicity, DMS114; format: cell-based; conditions: Homo sapiens, DMS-114; read-out: Log10 GI50, DMS114 (converted)
Description: as §1

HCT-116 colon cancer = assay: Cytotoxicity, HCT-116; format: cell-based; conditions: Homo sapiens, read-out: Log10 GI50, HCT-116 (converted)
Description: as §1

HCT-15 colon cancer = assay: Cytotoxicity, HCT-15; format: cell-based; conditions: Homo sapiens, read-out: Log10 GI50, HCT-15 (converted)
Description: as §1

KM12 colon cancer = assay: Cytotoxicity, KM12; format: cell-based; conditions: Homo sapiens, read-out: Log10 GI50, KM12 (converted)
Description: as §1

KM20L2 colon cancer = assay: Cytotoxicity, KM20L2; format: cell-based; conditions: Homo sapiens, KM-20L2; read-out: Log10 GI50, KM20L2 (converted)
Description: as §1

SW-620 colon cancer = assay: Cytotoxicity, SW-620; format: cell-based; conditions: Homo sapiens, read-out: Log10 GI50, SW-620 (converted)
Description: as §1

SNB-19 CNS cancer = assay: Cytotoxicity, SNB-19; format: cell-based; conditions: Homo sapiens, read-out: Log10 GI50, SNB-19 (converted)
Description: as §1

SNB-78 CNS cancer = assay: Cytotoxicity, SNB-78; format: cell-based; conditions: Homo sapiens, read-out: Log10 GI50, SNB-78 (converted)
Description: as §1

MALME-3M melanoma = assay: Cytotoxicity, MALME-3M; format: cell-based; conditions: Homo sapiens, read-out: Log10 GI50, MALME-3M (converted)
Description: as §1

SK-MEL-5 melanoma = assay: Cytotoxicity, SK-MEL-5 (Table XI panel); format: cell-based; conditions: Homo sapiens, read-out: Log10 GI50, SK-MEL-5 (converted)
Description: as §1

UACC-257 melanoma = assay: Cytotoxicity, UACC-257; format: cell-based; conditions: Homo sapiens, read-out: Log10 GI50, UACC-257 (converted)
Description: as §1

UACC-62 melanoma = assay: Cytotoxicity, UACC-62; format: cell-based; conditions: Homo sapiens, read-out: Log10 GI50, UACC-62 (converted)
Description: as §1

OVCAR-4 ovarian cancer = assay: Cytotoxicity, OVCAR-4; format: cell-based; conditions: Homo sapiens, read-out: Log10 GI50, OVCAR-4 (converted)
Description: as §1

OVCAR-5 ovarian cancer = assay: Cytotoxicity, OVCAR-5; format: cell-based; conditions: Homo sapiens, read-out: Log10 GI50, OVCAR-5 (converted)
Description: as §1

SK-OV-3 ovarian cancer = assay: Cytotoxicity, SK-OV-3; format: cell-based; conditions: Homo sapiens, read-out: Log10 GI50, SK-OV-3 (converted)
Description: as §1

786-0 renal cancer = assay: Cytotoxicity, 786-0; format: cell-based; conditions: Homo sapiens, read-out: Log10 GI50, 786-0 (converted)
Description: as §1

A498 renal cancer = assay: Cytotoxicity, A498; format: cell-based; conditions: Homo sapiens, read-out: Log10 GI50, A498 (converted)
Description: as §1

TK-10 renal cancer = assay: Cytotoxicity, TK-10; format: cell-based; conditions: Homo sapiens, read-out: Log10 GI50, TK-10 (converted)
Description: as §1

UO-31 renal cancer = assay: Cytotoxicity, UO-31; format: cell-based; conditions: Homo sapiens, read-out: Log10 GI50, UO-31 (converted)
Description: as §1

Water solubility = format: physicochemical
M14 melanoma = assay: Cytotoxicity, M14; conditions: read-out: cytotoxicity GI50, M14, 50% growth inhibition, average of two determinations, 8640 min, Hydrochloride
CAKI-1 renal cancer = assay: Cytotoxicity, CAKI-1; conditions: read-out: cytotoxicity GI50, CAKI-1, 50% growth inhibition, average of two determinations, 8640 min, Hydrochloride
OVCAR-3 ovarian cancer = assay: Cytotoxicity, OVCAR-3; conditions: read-out: cytotoxicity GI50, OVCAR-3, 50% growth inhibition, average of two determinations, 8640 min, Hydrochloride
COLO 205 colon cancer = assay: Cytotoxicity, COLO 205

## COc1cc(CNc2ccc(C)cc2)cc(OC)c1OC.Cl [110a, 4-Methyl-N-(3,4,5-trimethoxybenzyl)aniline Hydrochloride]
CCRF-CBM leukemia
  GI50: 282 nM
K-562 leukemia; Homo sapiens, K562, read-out: Log10 GI50, K-562 (converted)
  GI50: < 100 nM
K-562 leukemia; Hydrochloride
  Log10 GI50, K-562: -7.00
RPMI-8226 leukemia
  GI50: 437 nM
[1]
  GI50: 513 nM
[2]
  GI50: 282 nM
[3]
  GI50: 18600 nM
[4]
  GI50: 407 nM
[5]
  GI50: 501 nM
[6]
  GI50: 631 nM
[7]
  GI50: 427 nM
HCT-116 colon cancer
  GI50: 575 nM
HCT-15 colon cancer
  GI50: 245 nM
KM12 colon cancer
  GI50: 759 nM
KM20L2 colon cancer
  GI50: 251 nM
SW-620 colon cancer
  GI50: 110 nM
SNB-19 CNS cancer
  GI50: 295 nM
SNB-78 CNS cancer
  GI50: 1100 nM
MALME-3M melanoma
  GI50: 468 nM
SK-MEL-5 melanoma
  GI50: 912 nM
UACC-257 melanoma
  GI50: > 100000 nM
UACC-62 melanoma
  GI50: 575 nM
OVCAR-4 ovarian cancer
  GI50: 21400 nM
OVCAR-5 ovarian cancer
  GI50: 1350 nM
SK-OV-3 ovarian cancer
  GI50: 269 nM
786-0 renal cancer
  GI50: 324 nM
A498 renal cancer
  GI50: > 100000 nM
TK-10 renal cancer
  GI50: > 100000 nM
UO-31 renal cancer
  GI50: 832 nM
Water solubility
  water solubility (in words): water soluble
M14 melanoma
  GI50: 292 nM
CAKI-1 renal cancer
  GI50: 162 nM
OVCAR-3 ovarian cancer
  GI50: 214 nM
COLO 205 colon cancer
  Log10 GI50, COLO 205: -6.67
COLO 205 colon cancer; read-out: cytotoxicity GI50, COLO 205, 50% growth inhibition, average of two determinations, 8640 min, Hydrochloride, 8640 min
  GI50: 219 nM
